# Experimental data published in ChEMBL document CHEMBL4184197 (Bioorg Med Chem, 2018).
# Assays:
# [1] = molecular target: Adenosine receptor A2a (Homo sapiens) (UniProt P29274); experiment: Binding affinity to recombinant human A2A receptor at 10 uM after 120 mins by scintillation counting analysis relative to control
# Homo sapiens [2] = species on record: Homo sapiens; experiment: Binding affinity to human sigma receptor at 10 uM after 120 mins by scintillation counting analysis relative to control
# Homo sapiens [3] = species on record: Homo sapiens; experiment: Binding affinity to sodium channel (unknown origin) at 10 uM relative to control
# [4] = molecular target: Kinesin-like protein KIF11 (Homo sapiens) (UniProt P52732); experiment: Binding affinity to recombinant human EG5 at 10 uM after 10 mins by spectrophotometric analysis relative to control
# [5] = molecular target: Sodium-dependent serotonin transporter (Homo sapiens) (UniProt P31645); experiment: Binding affinity to 5-HT transporter (unknown origin) at 10 uM relative to control
# Sodium-dependent serotonin transporter (Homo sapiens), sequence (P31645 whole entry, looked up): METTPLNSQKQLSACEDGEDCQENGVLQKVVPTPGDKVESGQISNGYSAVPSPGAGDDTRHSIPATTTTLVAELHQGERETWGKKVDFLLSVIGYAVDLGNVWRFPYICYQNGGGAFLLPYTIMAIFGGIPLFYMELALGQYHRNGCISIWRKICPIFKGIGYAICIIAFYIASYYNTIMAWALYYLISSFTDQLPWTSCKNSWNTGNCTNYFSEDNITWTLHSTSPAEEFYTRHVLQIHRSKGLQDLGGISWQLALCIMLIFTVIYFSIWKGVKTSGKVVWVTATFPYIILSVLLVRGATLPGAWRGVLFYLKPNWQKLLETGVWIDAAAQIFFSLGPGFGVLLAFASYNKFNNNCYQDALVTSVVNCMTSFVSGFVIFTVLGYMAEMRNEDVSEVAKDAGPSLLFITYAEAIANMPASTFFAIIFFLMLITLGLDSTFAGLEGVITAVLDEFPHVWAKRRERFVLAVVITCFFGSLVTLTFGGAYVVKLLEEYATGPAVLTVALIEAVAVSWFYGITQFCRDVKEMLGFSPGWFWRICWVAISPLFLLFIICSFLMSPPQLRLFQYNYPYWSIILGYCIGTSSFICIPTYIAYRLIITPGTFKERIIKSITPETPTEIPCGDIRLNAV
# [6] = molecular target: Nociceptin receptor (Homo sapiens) (UniProt P41146); experiment: Binding affinity to recombinant human NOP receptor at 10 uM after 60 mins by scintillation counting analysis relative to control
# [7] = molecular target: Endothelin-1 receptor (Homo sapiens) (UniProt P25101); experiment: Binding affinity to recombinant human ETA receptor at 10 uM after 120 mins by scintillation counting analysis relative to control
# Endothelin-1 receptor (Homo sapiens), sequence (P25101 whole entry): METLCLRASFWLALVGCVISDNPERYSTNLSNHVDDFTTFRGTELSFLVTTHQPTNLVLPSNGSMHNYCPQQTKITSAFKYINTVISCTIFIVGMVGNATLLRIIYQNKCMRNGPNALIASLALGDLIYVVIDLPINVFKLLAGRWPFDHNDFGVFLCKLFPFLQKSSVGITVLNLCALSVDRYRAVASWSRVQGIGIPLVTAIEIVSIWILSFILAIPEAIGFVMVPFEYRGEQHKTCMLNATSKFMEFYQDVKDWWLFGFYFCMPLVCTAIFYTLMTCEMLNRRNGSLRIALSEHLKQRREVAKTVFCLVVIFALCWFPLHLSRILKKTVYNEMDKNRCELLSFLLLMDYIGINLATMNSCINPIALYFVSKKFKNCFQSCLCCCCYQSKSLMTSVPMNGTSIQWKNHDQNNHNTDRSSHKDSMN
# [8] = molecular target: 3-hydroxy-3-methylglutaryl-coenzyme A reductase (Homo sapiens) (UniProt P04035); experiment: Binding affinity to HMG-CoA reductase (unknown origin) at 10 uM by relative to control
# [9] = molecular target: Prostacyclin receptor (Homo sapiens) (UniProt P43119); experiment: Binding affinity to recombinant human IP receptor at 10 uM after 60 mins by scintillation counting analysis relative to control
# Homo sapiens [10] = species on record: Homo sapiens; experiment: Binding affinity to chloride channel (unknown origin) at 10 uM relative to control
# CHO-K1 = experiment: Genotoxicity in CHOK1 cells in absence of rat liver S9 fraction by fluorescence imaging based micronucleus assay; assay type: toxicity, cell-based, Cricetulus griseus; settings: chinese hamster
# [11] = molecular target: D(2) dopamine receptor (Homo sapiens) (UniProt P14416); experiment: Binding affinity to recombinant human dopamine receptor D2S at 10 uM after 60 mins by scintillation counting analysis relative to control
# [12] = molecular target: Sodium-dependent dopamine transporter (Homo sapiens) (UniProt Q01959); experiment: Binding affinity to dopamine transporter (unknown origin) at 10 uM relative to control
# [13] = molecular target: Melanocortin receptor 4 (Homo sapiens) (UniProt P32245); experiment: Binding affinity to recombinant human MC4 receptor at 10 uM after 120 mins by scintillation counting analysis relative to control
# Melanocortin receptor 4 (Homo sapiens), sequence (P32245 whole entry): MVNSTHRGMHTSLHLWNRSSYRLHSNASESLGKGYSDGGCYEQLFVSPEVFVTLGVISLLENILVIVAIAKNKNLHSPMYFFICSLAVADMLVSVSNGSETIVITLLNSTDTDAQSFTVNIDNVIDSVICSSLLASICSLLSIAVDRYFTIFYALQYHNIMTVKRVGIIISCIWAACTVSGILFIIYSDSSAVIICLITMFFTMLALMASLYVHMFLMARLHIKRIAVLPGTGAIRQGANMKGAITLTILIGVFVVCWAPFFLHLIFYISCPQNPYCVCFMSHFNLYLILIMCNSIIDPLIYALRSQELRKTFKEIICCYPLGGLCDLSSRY
# [14] = molecular target: Endothelin receptor type B (Homo sapiens) (UniProt P24530); experiment: Binding affinity to recombinant human ETB receptor at 10 uM after 120 mins by scintillation counting analysis relative to control
# [15] = molecular target: Prostaglandin G/H synthase 2 (Homo sapiens) (UniProt P35354); experiment: Binding affinity to recombinant human COX2 at 10 uM after 5 mins by fluorescence assay relative to control
# Prostaglandin G/H synthase 2 (Homo sapiens), sequence (P35354 whole entry, looked up): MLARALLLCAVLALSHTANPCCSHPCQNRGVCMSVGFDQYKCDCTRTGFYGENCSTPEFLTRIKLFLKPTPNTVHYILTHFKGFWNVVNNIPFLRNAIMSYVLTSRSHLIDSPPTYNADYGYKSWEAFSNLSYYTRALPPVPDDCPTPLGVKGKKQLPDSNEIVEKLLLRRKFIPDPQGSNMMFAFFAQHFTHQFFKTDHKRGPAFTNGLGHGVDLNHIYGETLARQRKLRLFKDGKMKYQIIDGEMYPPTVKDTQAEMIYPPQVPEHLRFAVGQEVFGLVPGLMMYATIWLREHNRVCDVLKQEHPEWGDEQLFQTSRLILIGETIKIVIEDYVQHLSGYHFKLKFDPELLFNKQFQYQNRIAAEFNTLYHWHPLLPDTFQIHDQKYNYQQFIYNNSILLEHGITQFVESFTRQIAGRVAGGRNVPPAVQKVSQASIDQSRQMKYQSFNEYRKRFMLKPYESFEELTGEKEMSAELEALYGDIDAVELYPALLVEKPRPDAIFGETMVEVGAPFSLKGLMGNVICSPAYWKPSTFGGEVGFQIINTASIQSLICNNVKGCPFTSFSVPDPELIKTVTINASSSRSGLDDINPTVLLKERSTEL
# [16] = molecular target: Muscarinic acetylcholine receptor M1 (Homo sapiens) (UniProt P11229); experiment: Binding affinity to recombinant human muscarinic M1 receptor at 10 uM after 60 mins by scintillation counting analysis relative to control
# Muscarinic acetylcholine receptor M1 (Homo sapiens), sequence (P11229 whole entry): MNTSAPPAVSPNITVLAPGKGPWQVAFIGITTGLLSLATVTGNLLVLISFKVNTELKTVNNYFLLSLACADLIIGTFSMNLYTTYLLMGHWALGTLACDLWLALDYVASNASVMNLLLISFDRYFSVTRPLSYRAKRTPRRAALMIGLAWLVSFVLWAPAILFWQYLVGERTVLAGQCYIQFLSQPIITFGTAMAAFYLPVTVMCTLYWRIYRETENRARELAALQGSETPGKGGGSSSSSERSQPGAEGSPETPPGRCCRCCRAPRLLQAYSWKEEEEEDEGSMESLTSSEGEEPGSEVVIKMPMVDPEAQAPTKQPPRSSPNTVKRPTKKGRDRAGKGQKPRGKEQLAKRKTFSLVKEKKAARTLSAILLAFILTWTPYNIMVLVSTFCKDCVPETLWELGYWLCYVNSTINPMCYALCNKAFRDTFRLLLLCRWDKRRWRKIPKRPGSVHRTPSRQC
# Homo sapiens [17] = species on record: Homo sapiens; experiment: Binding affinity to delta-2-opioid receptor (unknown origin) at 10 uM relative to control
# [18] = molecular target: Histone deacetylase 11 (Homo sapiens) (UniProt Q96DB2); experiment: Binding affinity to recombinant human HDAC11 at 10 uM after 30 mins by fluorescence analysis relative to control
# Histone deacetylase 11 (Homo sapiens), sequence (Q96DB2 whole entry): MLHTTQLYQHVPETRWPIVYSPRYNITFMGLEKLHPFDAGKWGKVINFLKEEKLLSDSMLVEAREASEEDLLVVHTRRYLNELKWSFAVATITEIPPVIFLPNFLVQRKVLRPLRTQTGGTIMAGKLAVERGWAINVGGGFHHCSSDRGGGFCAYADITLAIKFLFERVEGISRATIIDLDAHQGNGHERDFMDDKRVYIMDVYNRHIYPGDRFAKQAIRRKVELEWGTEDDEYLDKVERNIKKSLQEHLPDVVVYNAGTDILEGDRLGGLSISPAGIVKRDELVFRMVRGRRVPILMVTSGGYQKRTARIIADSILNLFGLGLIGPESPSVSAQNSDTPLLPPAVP
# Bos taurus = species on record: Bos taurus; experiment: Binding affinity to bovine PDE6 at 10 uM after 60 mins by scintillation counting analysis relative to control
# [19] = molecular target: NAD-dependent protein deacetylase sirtuin-1 (Homo sapiens) (UniProt Q96EB6); experiment: Binding affinity to surtuin-1 (unknown origin) at 10 uM by relative to control
# COS-7 = experiment: Cytotoxicity against African green monkey COS7 cells assessed as cell death after 2 days by MTT assay; assay type: cell-based; settings: chlorocebus aethiops, cos-7, 48 h
# [20] = molecular target: Translocator protein (Homo sapiens) (UniProt P30536); experiment: Binding affinity to peripheral-type benzodiazepine receptor (unknown origin) at 10 uM relative to control
# [21] = molecular target: Histone deacetylase 3 (Homo sapiens) (UniProt O15379); experiment: Binding affinity to recombinant human HDAC3 at 10 uM after 10 mins by fluorescence analysis relative to control
# Histone deacetylase 3 (Homo sapiens), sequence (O15379 whole entry): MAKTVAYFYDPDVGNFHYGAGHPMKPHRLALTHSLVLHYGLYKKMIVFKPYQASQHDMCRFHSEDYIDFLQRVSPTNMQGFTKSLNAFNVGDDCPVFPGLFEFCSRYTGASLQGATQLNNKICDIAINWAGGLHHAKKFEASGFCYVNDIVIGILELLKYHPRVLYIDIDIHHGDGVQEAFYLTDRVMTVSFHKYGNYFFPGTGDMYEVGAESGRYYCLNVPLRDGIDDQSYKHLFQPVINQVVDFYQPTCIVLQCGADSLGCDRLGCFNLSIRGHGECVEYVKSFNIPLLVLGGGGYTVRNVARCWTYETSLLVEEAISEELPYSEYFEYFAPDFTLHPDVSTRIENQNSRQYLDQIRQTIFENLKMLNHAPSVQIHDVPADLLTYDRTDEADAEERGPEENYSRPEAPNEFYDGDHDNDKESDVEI
# [22] = molecular target: Beta-1 adrenergic receptor (Homo sapiens) (UniProt P08588); experiment: Binding affinity to recombinant human beta1 receptor at 10 uM after 60 mins by scintillation counting analysis relative to control
# [23] = molecular target: Vasoactive intestinal polypeptide receptor 1 (Homo sapiens) (UniProt P32241); experiment: Binding affinity to recombinant human VPAC1 receptor at 10 uM after 60 mins by scintillation counting analysis relative to control
# [24] = molecular target: Vasopressin V1a receptor (Homo sapiens) (UniProt P37288); experiment: Binding affinity to recombinant human V1A receptor at 10 uM after 60 mins by scintillation counting analysis relative to control
# Vasopressin V1a receptor (Homo sapiens), sequence (P37288 whole entry, looked up): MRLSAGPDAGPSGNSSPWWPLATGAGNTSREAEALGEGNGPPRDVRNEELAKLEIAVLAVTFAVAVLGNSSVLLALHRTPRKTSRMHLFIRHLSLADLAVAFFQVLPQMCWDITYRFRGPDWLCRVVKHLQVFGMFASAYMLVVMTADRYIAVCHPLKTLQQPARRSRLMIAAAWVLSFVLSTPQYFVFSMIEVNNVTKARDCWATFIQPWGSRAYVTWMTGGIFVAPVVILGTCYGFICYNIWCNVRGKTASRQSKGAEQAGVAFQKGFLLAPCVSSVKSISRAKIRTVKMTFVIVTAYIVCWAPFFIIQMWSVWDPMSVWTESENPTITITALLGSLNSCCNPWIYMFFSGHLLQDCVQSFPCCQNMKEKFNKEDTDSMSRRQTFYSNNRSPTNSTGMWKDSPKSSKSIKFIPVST
# Rattus norvegicus = species on record: Rattus norvegicus; experiment: Binding affinity to rat GABA receptor at 10 uM after 30 mins by scintillation counting analysis relative to control
# [25] = molecular target: cGMP-dependent 3',5'-cyclic phosphodiesterase (Homo sapiens) (UniProt O00408); experiment: Binding affinity to recombinant human PDE2A1 at 10 uM after 20 mins by scintillation counting analysis relative to control
# cGMP-dependent 3',5'-cyclic phosphodiesterase (Homo sapiens), sequence (O00408 whole entry): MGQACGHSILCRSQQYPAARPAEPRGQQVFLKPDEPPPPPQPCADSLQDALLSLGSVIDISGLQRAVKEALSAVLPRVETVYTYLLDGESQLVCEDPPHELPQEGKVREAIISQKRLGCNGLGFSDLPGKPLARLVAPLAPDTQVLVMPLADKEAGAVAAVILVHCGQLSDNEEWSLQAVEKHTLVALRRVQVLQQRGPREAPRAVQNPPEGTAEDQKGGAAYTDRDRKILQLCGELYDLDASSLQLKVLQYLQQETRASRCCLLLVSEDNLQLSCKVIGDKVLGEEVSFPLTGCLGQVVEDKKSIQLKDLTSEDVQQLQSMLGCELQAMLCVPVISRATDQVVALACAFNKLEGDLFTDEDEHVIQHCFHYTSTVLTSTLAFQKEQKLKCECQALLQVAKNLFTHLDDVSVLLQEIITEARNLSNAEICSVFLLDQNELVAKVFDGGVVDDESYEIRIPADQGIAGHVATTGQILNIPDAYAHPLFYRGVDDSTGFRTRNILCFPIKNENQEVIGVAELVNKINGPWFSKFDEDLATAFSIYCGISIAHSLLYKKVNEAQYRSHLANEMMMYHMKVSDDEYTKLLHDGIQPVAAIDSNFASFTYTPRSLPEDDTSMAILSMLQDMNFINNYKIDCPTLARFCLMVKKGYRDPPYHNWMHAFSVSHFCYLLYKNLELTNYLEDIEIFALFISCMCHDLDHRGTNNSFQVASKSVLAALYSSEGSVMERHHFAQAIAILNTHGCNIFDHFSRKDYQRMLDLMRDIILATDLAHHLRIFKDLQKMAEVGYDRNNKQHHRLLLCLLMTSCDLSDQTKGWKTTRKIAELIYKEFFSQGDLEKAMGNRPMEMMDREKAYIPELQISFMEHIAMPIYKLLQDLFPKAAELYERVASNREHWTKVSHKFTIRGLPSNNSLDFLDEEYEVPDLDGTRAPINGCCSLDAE
# [26] = molecular target: Substance-P receptor (Homo sapiens) (UniProt P25103); experiment: Binding affinity to human NK1 receptor at 10 uM after 30 mins by scintillation counting analysis relative to control
# Homo sapiens [27] = species on record: Homo sapiens; experiment: Binding affinity to P2Y receptor (unknown origin) at 10 uM relative to control
# [28] = molecular target: Histamine H2 receptor (Homo sapiens) (UniProt P25021); experiment: Binding affinity to recombinant human histamine H2 receptor at 10 uM after 120 mins by scintillation counting analysis relative to control
# L-type calcium channel = L-type calcium channel (Homo sapiens, UniProt O60840+Q01668+Q13698+Q13936); experiment: Binding affinity to L-type calcium channel (unknown origin) at 10 uM relative to control; assay type: protein assay; settings: read-out: Activity
# Salmonella typhimurium = experiment: Mutagenicity in Salmonella typhimurium TA98 in absence of rat liver S9 fraction by Ames test; assay type: toxicity, organism-based; settings: salmonella enterica subsp. enterica serovar typhimurium
# [29] = molecular target: 5-hydroxytryptamine receptor 3A (Homo sapiens) (UniProt P46098); experiment: Binding affinity to recombinant human 5-HT3 receptor at 10 uM after 120 mins by scintillation counting analysis relative to control
# [30] = molecular target: Prostaglandin E2 receptor EP2 subtype (Homo sapiens) (UniProt P43116); experiment: Binding affinity to recombinant human EP2 receptor at 10 uM after 120 mins by scintillation counting analysis relative to control
# [31] = molecular target: C-X-C chemokine receptor type 2 (Homo sapiens) (UniProt P25025); experiment: Binding affinity to recombinant human CXCR2 receptor at 10 uM after 60 mins by scintillation counting analysis relative to control
# C-X-C chemokine receptor type 2 (Homo sapiens), sequence (P25025 whole entry): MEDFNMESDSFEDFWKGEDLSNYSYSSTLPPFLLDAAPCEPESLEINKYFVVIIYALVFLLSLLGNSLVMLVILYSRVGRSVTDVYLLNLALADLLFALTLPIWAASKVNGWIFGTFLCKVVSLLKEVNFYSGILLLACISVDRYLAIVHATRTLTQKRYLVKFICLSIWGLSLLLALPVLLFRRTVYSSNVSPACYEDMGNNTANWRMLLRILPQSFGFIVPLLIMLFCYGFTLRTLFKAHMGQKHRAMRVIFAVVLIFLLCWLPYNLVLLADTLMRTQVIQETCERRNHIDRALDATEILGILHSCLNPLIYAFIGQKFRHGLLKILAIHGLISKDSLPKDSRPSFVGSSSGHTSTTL
# [32] = molecular target: Adrenergic receptor alpha-2 (Homo sapiens) (UniProt P08913+P18825+P18089); experiment: Binding affinity to alpha2 receptor (unknown origin) at 10 uM relative to control; assay type: protein assay
structure (smiles),measurement,setting,value
CCOc1c(Cl)cc(C(=O)Nc2ccc(C(=O)O)c(C)c2)cc1OC(C)C,Activity,[1],< 25%
same,Activity,Homo sapiens [2],< 25%
same,Activity,Homo sapiens [3],< 25%
same,Activity,[4],< 25%
same,Activity,[5],< 25%
same,Activity,[6],< 25%
same,Activity,[7],< 25%
same,Activity,[8],< 25%
same,Activity,[9],< 25%
same,Activity,Homo sapiens [10],< 25%
same,Activity,CHO-K1,Non-Toxic
same,Activity,[11],< 25%
same,Activity,[12],< 25%
same,Activity,[13],< 25%
same,Activity,[14],< 25%
same,Activity,[15],< 25%
same,Activity,[16],< 25%
same,Activity,Homo sapiens [17],< 25%
same,Activity,[18],< 25%
same,Activity,Bos taurus,< 25%
same,Activity,[19],< 25%
same,Activity,COS-7,Non-Toxic
same,Activity,[20],< 25%
same,Activity,[21],< 25%
same,Activity,[22],< 25%
same,Activity,[23],< 25%
same,Activity,[24],< 25%
same,Activity,Rattus norvegicus,< 25%
same,Activity,[25],< 25%
same,Activity,[26],< 25%
same,Activity,Homo sapiens [27],< 25%
same,Activity,[28],< 25%
same,activity at 10 µM,L-type calcium channel,≤ 25%
same,Activity,Salmonella typhimurium,Non-Toxic
same,Activity,[29],< 25%
same,Activity,[30],< 25%
same,Activity,[31],< 25%
same,Activity,[32],< 25%
